# Test results from patent US20180206491A1, “SUBSTITUTED CYCLIC ARYL AND HETEROARYL CARBOXYLIC ACID HYDRAZIDES OR SALTS THEREOF AND USE THEREOF TO INCREASE STRESS TOLERANCE IN PLANTS” (Bayer CropScience Aktiengesellschaft, priority 2015, published 2018).
# Experiments:
# Conditions in all cases: spray application
# Brassica napus [1] = assay: In vivo analyses: drought stress, visual scoring of damage, efficacy EF
# Experimental: (§1) Seeds of monocotyledonous and dicotyledonous crop plants were sown in sandy loam in wood-fiber or plastic pots, covered with soil or sand and cultivated in a greenhouse under good growth conditions. The trial plants were treated at the early leaf stage (BBCH10-BBCH13). To assure uniform water supply before commencement of stress, the potted plants were supplied with water by dam irrigation prior to substance application. The inventive compounds formulated in the form of wettable powders (WP) were sprayed onto the green parts of the plants as an aqueous suspension at an equivalent water application rate of 600 I/ha with addition of 0.2% wetting agent (e.g. agrotin). Substance application was followed immediately by stress treatment of the plants. For this purpose, the wood-fiber pots were transferred in plastic inserts in order to prevent them from subsequently drying out too quickly. Drought stress was induced by gradual drying out under the following conditions: “Day”: 14 hours with illumination at ˜26-30° C. “Night”: 10 hours without illumination at ˜18-20° C. The duration of the respective stress phases was guided mainly by the condition of the stressed control plants. It was ended (by re-irrigating and transfer to a greenhouse with good growth conditions) as soon as irreversible damage was observed on the stressed control plants. The end of the stress phase was followed by an about 4-7-day recovery phase, during which the plants were once again kept under good growth conditions in a greenhouse. The duration of the recovery phase was guided mainly by when the trial plants had attained a state which enabled visual scoring of potential effects, and is therefore variable. Once this juncture was reached, the intensities of damage were scored visually in comparison to untreated, unstressed controls of the same age. The damage intensity was at first assessed in percent. These values were then used to calculate the efficacy of the test compounds by the following formula: [formula] EF: Efficacy DIs: Damage intensity of the stressed control plants DIt: Damage intensity of the stressed plants treated with test compound The values reported in tables A-1 to A-3 below are mean values from at least one trial with at least two repeats, showing the effects of selected compounds of the general formula (I) under drought stress on various crop plants.
# Triticum aestivum [2] = assay: as above
# Experimental: as §1
# Triticum aestivum [3] = assay: In vivo analyses Part B: drought stress, appearance versus stressed control plants in categories; design: key: 0: no positive effect; +: slight positive effect; ++: clear positive effect; +++: strong positive effect
# Experimental: (§2) Seeds of monocotyledonous and dicotyledonous crop plants were sown in sandy loam in plastic pots, covered with soil or sand and cultivated in a greenhouse under good growth conditions. The test plants are treated at the early leaf stage (BBCH10-BBCH13). To assure uniform water supply before commencement of stress, the potted plants were supplied with water by dam irrigation prior to substance application. The inventive compounds were first formulated as wettable powders (WP) or dissolved in a solvent mixture. The further dilution was effected with water supplemented with 0.2% wetting agent (e.g. agrotin). The finished spray liquor was sprayed onto the green parts of the plant at an equivalent water application rate of 600 l/ha. Substance application was followed immediately by stress treatment of the plants. Drought stress was induced by gradual drying out under the following conditions: “Day”: 14 hours with illumination at ˜26-30° C. “Night”: 10 hours without illumination at ˜18-20° C. The duration of the respective stress phases was guided mainly by the condition of the stressed control plants. It was ended (by re-irrigating and transfer to a greenhouse with good growth conditions) as soon as irreversible damage was observed on the stressed control plants. The end of the stress phase was followed by an about 4-7-day recovery phase, during which the plants were once again kept under good growth conditions in a greenhouse. The duration of the recovery phase was guided mainly by when the trial plants had attained a state which enabled visual scoring of potential effects, and was therefore variable. Once this juncture had been reached, the appearance of the plants treated with test substances was recorded in comparison to the stressed control plants by the following categories: • 0 no positive effect • + slight positive effect • ++ clear positive effect • +++ strong positive effect In order to rule out any influence on the effects observed by any fungicidal or insecticidal action of the test compounds, it was additionally ensured that the tests proceeded without fungal infection or insect infestation. The values reported in tables B-1 and B-2 below are mean values of the results from at least three repeats. Effects of selected compounds of the general formula (I) under drought stress according to the following tables B-1 and B-2: […]
# Brassica napus [4] = assay: as above; design: key: 0: no positive effect; +: slight positive effect; ++: clear positive effect; +++: strong positive effect
# Experimental: as §2
# Zea mays = assay: In vivo analyses: drought stress, visual scoring of damage, efficacy EF
# Experimental: as §1
smiles,measurement,setting,value
CN1CCN(N(Cc2ccccc2C#N)C(=O)c2ccncc2)CC1 [C6-61],EF [%] (BRSNS),Brassica napus [1]; 2.5 g/ha,>5%
same,EF [%] (TRZAS),Triticum aestivum [2]; 25 g/ha,>5%
CN1CCN(N(Cc2ccccc2C#N)C(=O)c2cnccc2C(F)(F)F)CC1 [B6-61],Effect (TRZAS),Triticum aestivum [3]; 250 g/ha,+
O=C(c1cnccc1C(F)(F)F)N(Cc1ccc(Cl)nc1)N1CCCC1 [B2-94],Effect (TRZAS),Triticum aestivum [3]; 25 g/ha,+
O=C(c1ccccc1Cl)N(Cc1ccc(F)cc1F)N1CCCC1 [A7-15],Effect (BRSNS),Brassica napus [4]; 250 g/ha,+
same,Effect (TRZAS),Triticum aestivum [3]; 25 g/ha,+
"CN1CCN(N(Cc2ccccn2)C(=O)c2ccccc2C(F)(F)F)CC1 [A12-21, N—(N-Methylpyridazin-1-yl)-N-(pyridin-2-ylmethyl)-2-(trifluoromethyl)-benzamide]",Effect (BRSNS),Brassica napus [4]; 250 g/ha,+
COC1CCCN(N(Cc2cccc(C#N)c2)C(=O)c2ccncc2)C1 (stereo not shown) [C8-62],EF [%] (BRSNS),Brassica napus [1]; 2.5 g/ha,>5%
same,EF [%] (ZEAMX),Zea mays; 250 g/ha,>5%
O=C(c1ccncc1)N(Cc1ccccc1Cl)N1CCOCC1 [C7-1],EF [%] (BRSNS),Brassica napus [1]; 2.5 g/ha,>5%
COC1CCCN(N(Cc2cccc(Cl)c2)C(=O)c2ccncc2)C1 (stereo not shown) [C8-2],EF [%] (BRSNS),Brassica napus [1]; 250 g/ha,>5%
CN1CCN(N(Cc2nccc(Cl)c2Cl)C(=O)c2ccccc2C(F)(F)F)CC1 [A12-40],Effect (BRSNS),Brassica napus [4]; 250 g/ha,+
same,Effect (TRZAS),Triticum aestivum [3]; 25 g/ha,+
COC1CCCN(N(Cc2ccccc2Cl)C(=O)c2ccccc2C(F)(F)F)C1 (stereo not shown) [A13-1],Effect (BRSNS),Brassica napus [4]; 250 g/ha,+
same,Effect (TRZAS),Triticum aestivum [3]; 250 g/ha,+
O=C(c1cnccc1C(F)(F)F)N(Cc1ccccc1F)N1CCOCC1 [B5-11],Effect (BRSNS),Brassica napus [4]; 250 g/ha,+
O=C(c1cnccc1C(F)(F)F)N(Cc1ccc(F)cc1F)N1CCCC1 [B2-15],Effect (TRZAS),Triticum aestivum [3]; 250 g/ha,+
O=C(c1ccccc1C(F)(F)F)N(Cc1ccc2ccccc2n1)N1CCCC1 [A2-122],EF [%] (BRSNS),Brassica napus [1]; 250 g/ha,>5%
same,EF [%] (ZEAMX),Zea mays; 250 g/ha,>5%
same,EF [%] (TRZAS),Triticum aestivum [2]; 250 g/ha,>5%
O=C(c1cnccc1C(F)(F)F)N(Cc1ncc(C(F)(F)F)cc1Cl)N1CCCC1 [B2-36],Effect (BRSNS),Brassica napus [4]; 250 g/ha,+
same,Effect (TRZAS),Triticum aestivum [3]; 25 g/ha,+
"N#Cc1ccccc1CN(C(=O)c1cnccc1C(F)(F)F)N1CCCC1 [B2-61, N-(2-Cyanobenzyl)-N-(pyrrolidin-1-yl)-4-(trifluoromethyl)nicotinamide]",EF [%] (BRSNS),Brassica napus [1]; 25 g/ha,>5%
same,EF [%] (ZEAMX),Zea mays; 250 g/ha,>5%
same,EF [%] (TRZAS),Triticum aestivum [2]; 25 g/ha,>5%
O=C(c1ccc(Cl)c(Cl)c1)N(Cc1cc(Cl)ccc1Cl)N1CCCC1 [A5-6],EF [%] (ZEAMX),Zea mays; 250 g/ha,>5%
COC1CCCN(N(Cc2ccccc2C#N)C(=O)c2cnccc2C(F)(F)F)C1 (stereo not shown) [B7-61],Effect (TRZAS),Triticum aestivum [3]; 250 g/ha,+
N#Cc1ccccc1CN(C(=O)c1ccnnc1)N1CCCC1 [F1-61],Effect (BRSNS),Brassica napus [4]; 25 g/ha,+
same,Effect (TRZAS),Triticum aestivum [3]; 100 g/ha,+
COC1CCCN(N(Cc2ccccn2)C(=O)c2cnccc2C(F)(F)F)C1 (stereo not shown) [B7-21],Effect (BRSNS),Brassica napus [4]; 25 g/ha,+
COC1CCCN(N(Cc2ccccc2C#N)C(=O)c2ccccc2C(F)(F)F)C1 (stereo not shown) [A13-61],Effect (BRSNS),Brassica napus [4]; 25 g/ha,+
COc1ccccc1C(=O)N(Cc1ccc(F)cc1F)N1CCCC1 [A9-15],Effect (TRZAS),Triticum aestivum [3]; 25 g/ha,+
COC1CCCN(N(Cc2ccccc2Cl)C(=O)c2cnccc2C(F)(F)F)C1 (stereo not shown) [B7-1],Effect (TRZAS),Triticum aestivum [3]; 25 g/ha,++
O=C(c1cnccc1C(F)(F)F)N(Cc1ccccn1)N1CCOCC1 [B5-21],Effect (BRSNS),Brassica napus [4]; 250 g/ha,+
O=C(c1ccc(Cl)cc1Cl)N(Cc1ccc(F)cc1F)N1CCCC1 [A8-15],Effect (TRZAS),Triticum aestivum [3]; 25 g/ha,+
CN1CCN(N(Cc2ccccn2)C(=O)c2cnccc2C(F)(F)F)CC1 [B6-21],Effect (BRSNS),Brassica napus [4]; 250 g/ha,+
same,Effect (TRZAS),Triticum aestivum [3]; 250 g/ha,+
COc1c(C)cnc(CN(C(=O)c2ccccc2C(F)(F)F)N2CCCC2)c1C [A2-37],EF [%] (ZEAMX),Zea mays; 25 g/ha,>5%
same,EF [%] (TRZAS),Triticum aestivum [2]; 250 g/ha,>5%
N#Cc1ccccc1CN(C(=O)c1cccc2nnsc12)N1CCCC1 [A14-61],Effect (BRSNS),Brassica napus [4]; 250 g/ha,+
same,Effect (TRZAS),Triticum aestivum [3]; 25 g/ha,+
O=C(c1ccc(F)cc1C(F)(F)F)N(Cc1ccccc1Cl)N1CCCC1 [A6-1],EF [%] (ZEAMX),Zea mays; 250 g/ha,>5%
same,EF [%] (TRZAS),Triticum aestivum [2]; 25 g/ha,>5%
N#Cc1ccccc1CN(C(=O)c1ccncc1)N1CCCCC1 [C4-61],EF [%] (ZEAMX),Zea mays; 250 g/ha,>5%
same,EF [%] (TRZAS),Triticum aestivum [2]; 25 g/ha,>5%
"N#Cc1ccccc1CN(C(=O)c1cnccc1C(F)(F)F)N1CCOCC1 [B5-61, N-(2-Cyanobenzyl)-N-(morpholin-4-yl)-4-(trifluoromethyl)-nicotinamide]",Effect (BRSNS),Brassica napus [4]; 250 g/ha,+
same,Effect (TRZAS),Triticum aestivum [3]; 250 g/ha,+
CN1CCN(N(Cc2ccccc2Cl)C(=O)c2cnccc2C(F)(F)F)CC1 [B6-1],Effect (TRZAS),Triticum aestivum [3]; 250 g/ha,+
"COC1CCN(N(Cc2ccccn2)C(=O)c2ccccc2C(F)(F)F)C1 (stereo not shown) [A3-21, N-(3-Methoxypyrrolidin-1-yl)-N-(pyridin-2-ylmethyl)-2-(trifluoromethyl)benzamide]",EF [%] (ZEAMX),Zea mays; 250 g/ha,>5%
COc1c(C)cnc(CN(C(=O)c2ccc(F)cc2C(F)(F)F)N2CCCC2)c1C [A6-37],EF [%] (BRSNS),Brassica napus [1]; 2.5 g/ha,>5%
O=C(c1ccccc1C(F)(F)F)N(Cc1ccc(F)cc1F)N1CCCC1 [A2-15],Effect (BRSNS),Brassica napus [4]; 250 g/ha,+
same,Effect (TRZAS),Triticum aestivum [3]; 250 g/ha,+
O=C(c1ccccc1Cl)N(Cc1ccc(Cl)nc1)N1CCCC1 [A7-94],Effect (TRZAS),Triticum aestivum [3]; 25 g/ha,+
CN1CCN(N(Cc2ccccc2Cl)C(=O)c2ccccc2C(F)(F)F)CC1 [A12-1],Effect (TRZAS),Triticum aestivum [3]; 250 g/ha,+
COC1CCCN(N(Cc2ccccn2)C(=O)c2ccccc2C(F)(F)F)C1 (stereo not shown) [A13-21],Effect (TRZAS),Triticum aestivum [3]; 250 g/ha,+
CC(c1ccc(F)cc1)N(C(=O)c1cnccc1C(F)(F)F)N1CCCC1 (stereo not shown) [B2-159],Effect (BRSNS),Brassica napus [4]; 250 g/ha,+
same,Effect (TRZAS),Triticum aestivum [3]; 250 g/ha,+
COC1CCCN(N(Cc2nccc(Cl)c2Cl)C(=O)c2ccccc2C(F)(F)F)C1 (stereo not shown) [A13-40],Effect (TRZAS),Triticum aestivum [3]; 250 g/ha,+
